In patent US20100267561A1, “HERBICIDAL PYRIDAZINONE DERIVATIVES” (priority 2007, published 2010):
Like-named read-outs stand apart in the source and are kept apart here.

Columns and labels:
Experiment in all cases: Test B pre-/postemergence plant response
Type in all cases: in vivo
[1] = test system: catchweed bedstraw (Galium aparine); details: Preemergence
Summary of the method: (§1)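 Visual scoring from 0 (no effect) to 100 (complete control) against untreated controls was done 13 to 15 days after greenhouse treatment. Chemicals were formulated in a surfactant-containing non-phytotoxic solvent and applied to soil preemergence or to 1- to 4-leaf (2-18 cm) plants postemergence.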

[2] = test system: wild oat (Avena fatua); details: for pest or weed control at 31 g/ha / pest or weed control at 62 g/ha: Avena fatua, read-out: Plant response rating, Oat, Wild; for pest or weed control at 31 g/ha: 31 g ai/ha; for pest or weed control at 62 g/ha: 62 g ai/ha, 100 complete control
Summary of the method: as §1

[3] = test system: woolly cupgrass (Eriochloa villosa); details: for pest or weed control at 31 g/ha: 31 g ai/ha; for pest or weed control at 62 g/ha: 62 g ai/ha, 100 complete control
Summary of the method: as §1

[4] = test system: corn (Zea mays); details: for Corn plant response rating (crop injury, 0 = no effect, 100 = complete kill) at 31 g/ha: 31 g ai/ha; for Corn plant response rating (crop injury, 0 = no effect, 100 = complete kill) at 62 g/ha: 62 g ai/ha, 100 complete control
Summary of the method: as §1

[5] = test system: yellow nutsedge (Cyperus esculentus); details: for pest or weed control at 31 g/ha / pest or weed control at 62 g/ha: Cyperus, read-out: Plant response rating, Nutsedge, Yellow; for pest or weed control at 31 g/ha: 31 g ai/ha; for pest or weed control at 62 g/ha: 62 g ai/ha, 100 complete control
Summary of the method: as §1

[6] = test system: velvetleaf (Abutilon theophrasti); details: for pest or weed control at 31 g/ha / pest or weed control at 62 g/ha: Abutilon theophrasti, read-out: Plant response rating, Velvetleaf; for pest or weed control at 31 g/ha: 31 g ai/ha; for pest or weed control at 62 g/ha: 62 g ai/ha, 100 complete control
Summary of the method: as §1

[7] = test system: Russian thistle (Salsola iberica); details: Preemergence
Summary of the method: as §1

[8] = test system: common ragweed (Ambrosia elation); details: for pest or weed control at 31 g/ha / pest or weed control at 62 g/ha: Ambrosia, read-out: Plant response rating, Ragweed; for pest or weed control at 31 g/ha: 31 g ai/ha; for pest or weed control at 62 g/ha: 62 g ai/ha, 100 complete control
Summary of the method: as §1

[9] = test system: goosegrass (Eleusine indica); details: for pest or weed control at 31 g/ha / pest or weed control at 62 g/ha: Eleusine indica, read-out: Plant response rating, Goosegrass; for pest or weed control at 31 g/ha: 31 g ai/ha; for pest or weed control at 62 g/ha: 62 g ai/ha, 100 complete control
Summary of the method: as §1

[10] = test system: large crabgrass (Digitaria sanguinalis); details: for pest or weed control at 31 g/ha: 31 g ai/ha; for pest or weed control at 62 g/ha: 62 g ai/ha, 100 complete control
Summary of the method: as §1

[11] = test system: johnsongrass (Sorghum halepense); details: for pest or weed control at 31 g/ha / pest or weed control at 62 g/ha: Sorghum halepense, read-out: Plant response rating, Johnsongrass; for pest or weed control at 31 g/ha: 31 g ai/ha; for pest or weed control at 62 g/ha: 62 g ai/ha, 100 complete control
Summary of the method: as §1

[12] = test system: blackgrass (Alopecurus myosuroides); details: for pest or weed control at 31 g/ha: 31 g ai/ha; for pest or weed control at 62 g/ha: 62 g ai/ha, 100 complete control
Summary of the method: as §1

[13] = test system: cocklebur (Xanthium strumarium); details: for pest or weed control at 31 g/ha: 31 g ai/ha; for pest or weed control at 62 g/ha: 62 g ai/ha, 100 complete control
Summary of the method: as §1

[14] = 8 g ai/ha, scale 0 to 100 (0 no effect, 100 complete control)
[15] = 8 g ai/ha, postemergence, 0-100 scale
[16] = 16 g ai/ha, postemergence, 0-100 scale
[17] = post-emergence, Postemergence, scale 0 to 100
[18] = post-emergence, Postemergence, scale 0 to 100, 0 no effect
[19] = pre-emergence, Preemergence, scale 0 to 100 (0 no effect, 100 complete control)
[20] = pre-emergence, Preemergence, 0 to 100 scale, 0 no effect
[21] = Preemergence, 8 g ai/ha, scale 0 to 100 (0 no effect, 100 complete control)
[22] = Preemergence, 16 g ai/ha, scale 0 to 100

Cc1cc(-c2ccc(Br)cc2)nn1-c1c(OC(=O)C2CC2)cnn(C(=O)C2CC2)c1=O [Compound 80, 5-[3-(4-bromophenyl)-5-methyl-1H-pyrazol-1-yl]-1-(cyclopropylcarbonyl)-1,6-dihydro-6-oxo-4-pyridazinyl cyclopropanecarboxylate]
70%: pest or weed control at 62 g/ha [2, 20]
80: Cupgrass, Woolly plant response rating [3, 15] | Blackgrass plant response rating [12, 15]
90: Johnsongrass plant response rating [11, 16]
40: Oat, Wild plant response rating [2, 22]
20: Corn plant response rating [4, 21] | Goosegrass plant response rating [9, 15] | Goosegrass plant response rating [9, 22]
70: Blackgrass plant response rating [12, 21] | Blackgrass plant response rating [12, 22]
0: Galium plant response rating [1, 14] | Galium plant response rating ([1]; 16 g ai/ha, scale 0 to 100) | Cupgrass, Woolly plant response rating [3, 21] | Nutsedge, Yellow plant response rating [5, 15] | Nutsedge, Yellow plant response rating [5, 16] | Nutsedge, Yellow plant response rating [5, 21] | Nutsedge, Yellow plant response rating [5, 22] | Velvetleaf plant response rating [6, 15] | Velvetleaf plant response rating [6, 16] | Velvetleaf plant response rating [6, 21] | Velvetleaf plant response rating [6, 22] | Russian Thistle plant response rating [7, 14] | Plant response rating, Russian Thistle ([7]; 31 g ai/ha, scale 0 to 100 (0 no effect, 100 complete control)) | Plant response rating, Russian Thistle ([7]; 62 g ai/ha, 0 to 100 scale, 0 no effect, 100 complete control) | Russian Thistle plant response rating ([7]; 16 g ai/ha, scale 0 to 100) | Ragweed plant response rating [8, 15] | Ragweed plant response rating [8, 16] | Ragweed plant response rating [8, 21] | Ragweed plant response rating [8, 22] | Goosegrass plant response rating [9, 21] | Crabgrass, Large plant response rating [10, 21] | Cocklebur plant response rating [13, 15] | Cocklebur plant response rating [13, 21] | Cocklebur plant response rating [13, 22]
98%: pest or weed control at 31 g/ha ([3]; Eriochloa villosa, pre-emergence, Preemergence, scale 0 to 100 (0 no effect, 100 complete control), read-out: Plant response rating, Cupgrass, Woolly) | Corn plant response rating (crop injury, 0 = no effect, 100 = complete kill) at 31 g/ha ([4]; Zea mays, pre-emergence, Preemergence, scale 0 to 100 (0 no effect, 100 complete control)) | pest or weed control at 62 g/ha [9, 18]
85%: pest or weed control at 31 g/ha [9, 17] | pest or weed control at 16 g/ha ([12]; Alopecurus myosuroides, post-emergence, Postemergence, 16 g ai/ha, scale 0 to 100, read-out: Plant response rating, Blackgrass)
100%: pest or weed control at 31 g/ha [2, 17] | pest or weed control at 62 g/ha [2, 18] | pest or weed control at 31 g/ha ([3]; Eriochloa villosa, post-emergence, Postemergence, scale 0 to 100, read-out: Plant response rating, Cupgrass, Woolly) | pest or weed control at 62 g/ha ([3]; Eriochloa villosa, post-emergence, Postemergence, scale 0 to 100, 0 no effect, read-out: Plant response rating, Cupgrass, Woolly) | pest or weed control at 62 g/ha ([3]; Eriochloa villosa, pre-emergence, Preemergence, 0 to 100 scale, 0 no effect, read-out: Plant response rating, Cupgrass, Woolly) | Corn plant response rating (crop injury, 0 = no effect, 100 = complete kill) at 16 g/ha ([4]; Zea mays, post-emergence, Postemergence, 16 g ai/ha, scale 0 to 100) | Corn plant response rating (crop injury, 0 = no effect, 100 = complete kill) at 31 g/ha ([4]; Zea mays, post-emergence, Postemergence, scale 0 to 100) | Corn plant response rating (crop injury, 0 = no effect, 100 = complete kill) at 62 g/ha ([4]; Zea mays, post-emergence, Postemergence, scale 0 to 100, 0 no effect) | Corn plant response rating (crop injury, 0 = no effect, 100 = complete kill) at 62 g/ha ([4]; Zea mays, pre-emergence, Preemergence, 0 to 100 scale, 0 no effect) | pest or weed control at 62 g/ha [5, 20] | pest or weed control at 31 g/ha [9, 19] | pest or weed control at 62 g/ha [9, 20] | pest or weed control at 16 g/ha ([10]; Digitaria sanguinalis, post-emergence, Postemergence, 16 g ai/ha, scale 0 to 100, read-out: Plant response rating, Crabgrass, Large) | pest or weed control at 31 g/ha ([10]; Digitaria sanguinalis, post-emergence, Postemergence, scale 0 to 100, read-out: Plant response rating, Crabgrass, Large) | pest or weed control at 62 g/ha ([10]; Digitaria sanguinalis, post-emergence, Postemergence, scale 0 to 100, 0 no effect, read-out: Plant response rating, Crabgrass, Large) | pest or weed control at 31 g/ha ([10]; Digitaria sanguinalis, pre-emergence, Preemergence, scale 0 to 100 (0 no effect, 100 complete control), read-out: Plant response rating, Crabgrass, Large) | pest or weed control at 62 g/ha ([10]; Digitaria sanguinalis, pre-emergence, Preemergence, 0 to 100 scale, 0 no effect, read-out: Plant response rating, Crabgrass, Large) | pest or weed control at 62 g/ha [11, 18] | pest or weed control at 62 g/ha [11, 20] | pest or weed control at 62 g/ha ([12]; Alopecurus myosuroides, post-emergence, Postemergence, scale 0 to 100, 0 no effect, read-out: Plant response rating, Blackgrass) | pest or weed control at 31 g/ha ([12]; Alopecurus myosuroides, pre-emergence, Preemergence, scale 0 to 100 (0 no effect, 100 complete control), read-out: Plant response rating, Blackgrass) | pest or weed control at 62 g/ha ([12]; Alopecurus myosuroides, pre-emergence, Preemergence, 0 to 100 scale, 0 no effect, read-out: Plant response rating, Blackgrass)
30: Oat, Wild plant response rating [2, 21]
98: Crabgrass, Large plant response rating [10, 15] | Crabgrass, Large plant response rating [10, 22]
75: Goosegrass plant response rating [9, 16] | Johnsongrass plant response rating [11, 15]
95%: pest or weed control at 16 g/ha ([3]; Eriochloa villosa, post-emergence, Postemergence, 16 g ai/ha, scale 0 to 100, read-out: Plant response rating, Cupgrass, Woolly) | pest or weed control at 31 g/ha [11, 17] | pest or weed control at 31 g/ha ([12]; Alopecurus myosuroides, post-emergence, Postemergence, scale 0 to 100, read-out: Plant response rating, Blackgrass)
65: Cupgrass, Woolly plant response rating [3, 22] | Johnsongrass plant response rating [11, 22]
60: Johnsongrass plant response rating [11, 21]
100: Oat, Wild plant response rating [2, 16] | Corn plant response rating [4, 15]
60%: pest or weed control at 31 g/ha [2, 19]
0%: pest or weed control at 31 g/ha ([1]; Galium aparine, pre-emergence, 31 g ai/ha, scale 0 to 100 (0 no effect, 100 complete control), read-out: Plant response rating, Galium) | pest or weed control at 62 g/ha ([1]; Galium aparine, pre-emergence, 62 g ai/ha, 0 to 100 scale, 0 no effect, 100 complete control, read-out: Plant response rating, Galium) | pest or weed control at 31 g/ha [5, 17] | pest or weed control at 62 g/ha [5, 18] | pest or weed control at 31 g/ha [5, 19] | pest or weed control at 31 g/ha [6, 17] | pest or weed control at 62 g/ha [6, 18] | pest or weed control at 31 g/ha [6, 19] | pest or weed control at 62 g/ha [6, 20] | pest or weed control at 31 g/ha [8, 17] | pest or weed control at 62 g/ha [8, 18] | pest or weed control at 31 g/ha [8, 19] | pest or weed control at 62 g/ha [8, 20] | pest or weed control at 16 g/ha ([13]; Xanthium strumarium, post-emergence, Postemergence, 16 g ai/ha, scale 0 to 100, read-out: Plant response rating, Cocklebur) | pest or weed control at 31 g/ha ([13]; Xanthium strumarium, post-emergence, Postemergence, scale 0 to 100, read-out: Plant response rating, Cocklebur) | pest or weed control at 62 g/ha ([13]; Xanthium strumarium, post-emergence, Postemergence, scale 0 to 100, 0 no effect, read-out: Plant response rating, Cocklebur) | pest or weed control at 31 g/ha ([13]; Xanthium strumarium, pre-emergence, Preemergence, scale 0 to 100 (0 no effect, 100 complete control), read-out: Plant response rating, Cocklebur) | pest or weed control at 62 g/ha ([13]; Xanthium strumarium, pre-emergence, Preemergence, 0 to 100 scale, 0 no effect, read-out: Plant response rating, Cocklebur)
80%: pest or weed control at 31 g/ha [11, 19]
85: Oat, Wild plant response rating [2, 15] | Corn plant response rating [4, 22]
